The results in this text go back to patent US20250295109A1, “UNIVERSAL SYNERGIST FOR INSECT ATTRACTANTS” (North Carolina State University, priority 2022, published 2025).

One test has as its system Musca domestica. The test is described as follows: dual choice trapping cage assay with commercial fly trap attractant (STARBAR). Conditions: 24 hours. Type of test: in vivo. From the text:
FIG. 8A is a schematic drawing showing a design for a dual choice free flight cage trapping assay used to determine the effect of nonanal on the trapping of house flies (Musca domestica) when used in combination with a commercial house fly lure. At the right of the drawing is shown a schematic of a 30 centimeter (cm) by 30 cm cage containing two commercial house fly traps (Trap 1 and Trap 2), each including a plastic cup fitted with a transparent lid that has an opening for the flies. An enlarged view of an individual trap is shown to the left side of the drawing. Inside each trap, at the bottom, is placed a commercial fly attractant as a lure. In addition, each trap is fitted with a 1.5 mL vial containing either 50 microliters (μL) dimethyl sulfoxide (DMSO) or 50 μL of a solution of nonanal in DMSO. For each experiment, 20 house flies are used.
The attraction of fed Musca domestica males and females to a commercial lure and a laboratory-built trap to which various amounts of nonanal were added is shown in […]. […] After 24 hours, house flies in both traps were counted. […]
The other trap in the dual choice trapping assay contained 50 mL of the commercial fly trap attractant lure plus a 50 μl of DMSO only. […] After 24 hours, flies in both traps were counted.

A further test deals with male CEW antenna. Nature of the test: GC-EAD of female sex pheromone gland extract on male CEW antenna. Also on record: species or system Helicoverpa zea. Conditions: compound present in CEW female sex pheromone gland extract. Here is the method:
Based on the finding that nonanal attracts male CEW in laboratory and field behavioral studies, and as described hereinbelow, a study of the female sex pheromone gland extract of Helicoverpa zea was performed using a gas chromatography-electroantennograom detector (GC-EAD), a device that couples a GC to an insect antenna, the olefactory organ of insects that serves as a biological detector. In this device, the GC separates chemicals in a mixture and presents them to the antenna, and its electrophysiological responses reveal which chemicals it senses. […]
The sex pheromone glands of multiple CEW females were dissected and the contents extracted with hexane. […] In parallel to the GC, the electrophysiological response of the antenna is recorded to identify the active compounds. […] Gland extracts were also analyzed using gas chromatography-mass spectrometry (GC-MS) (6890 GC and 5975 MS, Agilent Technologies, Palo Alto, California, United States of America) The GC-MS was operated in pulsed splitless mode (15 psi for 0.5 min, then 6 psi) and equipped with a DB-WAXetr column (30 m×0.25 mm, df=0.25 μm, Agilent Technologies, Palo Alto, California, United States of America), and helium was used as the carrier gas at an average velocity of 34 cm/s. […]

Test [1] relates to male corn earworm (CEW, Helicoverpa zea). The test is described as follows: field trapping of male CEW in Hartstack traps, nonanal dose study. The class given is in vivo. Here is the method:
FIG. 10C is a graph showing the effectiveness of different doses of nonanal in field trapping of male corn earworm (CEW, Helicoverpa zea) using a commercial sex pheromone lure with different doses of nonanal. Effectiveness is measured as the number of male CEW captured per trap per day. The data for the two bars on the left are from traps with no commercial pheromone dispenser, while the data for the six bars on the right are from traps with the commercial pheromone dispenser in combination with the dispenser containing either paraffin oil alone (0 percent (%) nonanal) or a paraffin oil solution comprising 0.5% to 8% nonanal (weight to weight relative to the amount of the main component of the commercial sex pheromone).
Some of the traps also contained, adjacent to the glass vials, a lure comprising a rubber septum formulated with the commercial CEW sex pheromone. Assuming that the commercial pheromone lure contained about 2 mg of the major component (i.e., (Z)-11-hexadecenal), the solutions in the glass vials were prepared to contain various amounts (0%, 0.5%, 1%, 2%, 4%, or 8%) of nonanal on a weight to weight basis with the (Z)-11-hexadecenal.

Consider `CCCCCCCCC=O` [nonanal], for which, in the test on Musca domestica (increasing amount of nonanal in 50 μl DMSO with 50 mL commercial fly trap attractant lure, other trap lure plus DMSO, fed flies), the “house flies trapped, nonanal trap versus trap without nonanal” value is reported as “more house flies are trapped”. The “attraction of house flies to commercial fly trap attractant lure at too much nonanal” value in the test with Musca domestica (too much nonanal in 50 μl DMSO with 50 mL commercial fly trap attractant lure) is recorded as “interferes with attraction of flies to the commercial fly trap attractant lure”. The “EAD response of the antenna” value with male CEW antenna is listed as “elicit an EAD response in the antenna”. Moreover, in test [1] (e.g. 0.5% to 4% nonanal (w/w to (Z)-11-hexadecenal) added to trap with commercial CEW sex pheromone), the “trap effectiveness with commercial CEW sex pheromone” value was “increased the trap effectiveness”. Further, in test [1] (traps containing only nonanal in paraffin oil, no commercial CEW sex pheromone lure), the “effectiveness in capturing male CEW, no commercial pheromone” value was “not effective in capturing male CEW”.
